From US12280168B2, “Method for sanitization of a chromatography column” (Cytiva Sweden AB, priority 2019, dated 2025)

Legend:
Type in all cases: cell-based
[1] = tested on: Pseudomonas aeruginosa, ATCC 9027; assay: Sanitization study 3: dual adapter strokes, 100 mM PAA in flush channel, resin valve opened and closed twice, 6 day clean hold
Protocol: (§1) A predefined sanitization method based on peracetic acid (PAA) as sanitization agent was evaluated in an AxiChrom™ 300 column (GE Healthcare) packed with agarose beads, as used in the MabSelect™ SuRe Protein A resin (GE Healthcare), by triplicate studies using P. aeruginosa as challenging organism. All parts in contact with the process flow including the resin were pre-cleaned, challenged, sanitized and evaluated. Microbial sampling was performed at predetermined sites on the system. Flow through samples were collected from the process chamber during the run and from the flush channel, process chamber and resin valve after finishing the sanitization method. Additional flow through samples were collected after five to six days of clean hold. Test methods used are presented below. The results were evaluated against stated acceptance criteria.
(§2) Pseudomonas aeruginosa, ATCC 9027, Gram negative bacteria
(§3) 1×10^7 CFU/ml or CFU/unit (CFU=Colony forming unit) […]
(§4) TSA plates streaked with P. aeruginosa ATCC 9027 (in-house glycerol stocks) were incubated in 37° C. over night (O.N.). […] O.N. Based on measured optical densities (ODs) of the inoculates and the assumption that 1 OD≈2×10^9 CFU/mL for P. aeruginosa, calculations were made on the volumes needed of the inoculate to be added to the resin slurry suspended in 50 mM NaCl. […] The microorganism concentrations were determined with test method 5. […]

[2] = tested on: Pseudomonas aeruginosa, ATCC 9027; assay: Sanitization study 2: dual adapter strokes, 100 mM PAA in flush channel, slurry chased with 20 mM PAA, 5 day clean hold
Protocol: as §1, §2, §3, §4

[3] = tested on: Pseudomonas aeruginosa, ATCC 9027; assay: Sanitization study 1: AxiChrom 300 column packed with resin inoculated with challenging organism, sanitized with peracetic acid
Protocol: as §1, §2, §3, §4

CC(=O)OO [PAA, peracetic acid]
Outcome against acceptance criteria, study 3 [1]: met the acceptance criteria | Challenging organism found after sanitization, study 3 ([1]; all sampling points): no challenging organism was discovered | Outcome against acceptance criteria, study 2 ([2]; positive control G showed no challenging organism): did meet the acceptance criteria | Result study 2, challenging organism in consolidation effluent / water rinse flowthrough after chasing slurry with 20 mM PAA ([2]; test method 5 viable count, samples G and J, before the sanitization method): 0 CFU/mL | Outcome against acceptance criteria, study 1 [3]: did not meet the acceptance criteria | Result study 1, resin after sanitization ([3]; test method 6 agar plate, 20 mM PAA): 0 CFU/g
